Data set [1] can be described thus: MTS tetrazolium reduction cell viability assay. Conditions: rat, rat mesangial cells (1097/IRMC cells), TGF-β1 stimulated, CC50 (μM), vs 1% DMSO vehicle.
In data set [2] the test system is TGF-β induced [14C]-proline incorporation in rat mesangial cells. Nature of the data set: [14C]-proline incorporation assay (collagen biosynthesis). Particulars: Rattus norvegicus, Mesangial cell, 44 h, inhibition of TGF-β1 (1 ng/ml) induced [14C]-proline incorporation, IRMC cells. It is filed as cell-based.

Structures can show the parent of a compound that is named as a salt. Some results are limits rather than exact numbers.

The source of these data is patent US11603349B2, “Anti-fibrotic compounds” (Certa Therapeutics Pty Ltd, priority 2017, dated 2023).

Regarding `COc1ccc(/C=C/C(=O)Nc2ccccc2C(=O)O)cc1OCc1cnn(C)c1` [Example 66, (E)-2-(3-(4-methoxy-3-((1-methyl-1H-pyrazol-4-yl)methoxy)phenyl)acrylamido)benzoic acid], the CC50 at 48 h in data set [1] was more than 300 µM. For the same molecule, the IC50 in data set [2] stood at 17 µM.

The molecule `COc1cccc(/C=C/C(=O)Nc2cccc(C#N)c2)c1OCCN(C)C` [Example 91, (E)-N-(3-cyanophenyl)-3-(2-(2-(dimethylamino)ethoxy)-3-methoxyphenyl)acrylamide] yielded a CC50 at 48 h in data set [1] of 18.1 µM. Besides, inhibition in data set [2] was half-maximal at 8.38 µM (IC50).

`COc1ccc(/C=C/C(=O)Nc2cccc(Cl)c2)cc1OCc1cnn(C)c1` [Example 160, (E)-N-(3-chlorophenyl)-3-(4-methoxy-3-((1-methyl-1H-pyrazol-4-yl)methoxy)phenyl)acrylamide] displayed a CC50 at 48 h in data set [1] of more than 300 µM. This molecule also displayed an IC50 in data set [2] of 30.4 µM.

For `COc1cc(/C=C/C(=O)Nc2ccccc2C(=O)O)ccc1OCc1ccnn1C` [Example 60, (E)-2-(3-(3-methoxy-4-((1-methyl-1H-pyrazol-5-yl)methoxy)phenyl)acrylamido)benzoic acid], the CC50 at 48 h in data set [1] turned out to be 100 µM. Further, the concentration for half-maximal inhibition (IC50) in data set [2] was determined as 20.3 µM.

For `C#CCOc1ccc(/C=C/C(=O)Nc2ccccc2C#N)c(OC2CCNCC2)c1OC` [Example 88, (E)-N-(2-cyanophenyl)-3-[3-methoxy-2-(4-piperidyloxy)-4-prop-2-ynoxy-phenyl]prop-2-enamide], the CC50 at 48 h in data set [1] stood at 12.4 µM. Moreover, half-maximal inhibition in data set [2] (IC50) required 4.45 µM.

For the molecule `COc1cc(C2CC2C(=O)Nc2ccccc2F)ccc1OC1CCN(C)C1` (stereo not drawn) [Example 138, N-(2-fluorophenyl)-2-(3-methoxy-4-((1-methylpyrrolidin-3-yl)oxy)phenyl)cyclopropane carboxamide], half-maximal cytotoxicity in data set [1] (CC50 at 48 h) was put at 50.9 µM. The molecule also came in with a half-inhibitory concentration (IC50) in data set [2] of 11 µM.

`COc1cc(/C=C/C(=O)Nc2ccc(F)cc2)ccc1OC1CCN(C)C1` (stereo not drawn) [Example 132, (E)-N-(4-fluorophenyl)-3-(3-methoxy-4-((1-methylpyrrolidin-3-yl)oxy)phenyl)actylamide trifluoroacetic acid salt]: the 50% cytotoxic concentration (CC50) at 48 h in data set [1] is 16.6 µM. In addition, the IC50 in data set [2] is 12 µM.

Regarding `C#CCOc1ccc(/C=C/C(=O)Nc2ccccc2C(=O)NCc2ccncc2)cc1OC` [Example 45, (E)-2-(3-(3-methoxy-4-(prop-2-yn-1-yloxy)phenyl)acrylamido)-N-(pyridin-4-ylmethyl)benzamide], the CC50 at 48 h in data set [1] is 307 µM. This molecule had a concentration for half-maximal inhibition (IC50) in data set [2] of 12.9 µM.

The molecule `C#CCOc1ccc(/C=C/C(=O)N2CCC(O)c3ccccc32)cc1OC` (stereo not drawn) [Example 14, (E)-1-(4-hydroxy-3,4-dihydroquinolin-1(2H)-yl)-3-(3-methoxy-4-(prop-2-yn-1-yloxy)phenyl)prop-2-en-1-one] came in with a half-maximal cytotoxic concentration (CC50) at 48 h in data set [1] of 48.9 µM. For the same molecule, in data set [2], the half-inhibitory concentration (IC50) came to 10.4 µM.

The molecule `COc1cc(/C=C/C(=O)Nc2ccc(C#N)cc2)ccc1OC1CCN(C)C1` (stereo not drawn) [Example 131, (E)-N-(4-cyanophenyl)-3-(3-methoxy-4-((1-methylpyrrolidin-3-yl)oxy)phenyl)acrylamide trifluoroacetic acid salt] came in with a CC50 at 48 h in data set [1] of 17.7 µM. Further, the IC50 in data set [2] was determined as 21.6 µM.

The molecule `C#CCOc1ccc(C2CC2C(=O)Nc2ccc(F)cc2)cc1OC` (stereo not drawn) [Example 133, N-(4-fluorophenyl)-2-(3-methoxy-4-(prop-2-yn-1-yloxy)phenyl)cyclopropanecarboxamide] came in with a half-maximal cytotoxic concentration (CC50) at 48 h in data set [1] of more than 300 µM. The IC50 in data set [2] came to 23.4 µM.

Consider `C#CCOc1ccc(/C=C/C(=O)Nc2ccccc2-n2cnc(C)n2)cc1CC` [Example 114, (E)-3-(3-ethyl-4-(prop-2-yn-1-yloxy)phenyl)-N-(2-(3-methyl-1H-1,2,4-triazol-1-yl)phenyl)-acrylamide], for which the half-maximal cytotoxic concentration (CC50) at 48 h in data set [1] worked out at 82 µM. Moreover, the half-inhibitory concentration (IC50) in data set [2] stood at 14.3 µM.

For the molecule `C#CCOc1ccc(/C=C/C(=O)Nc2ccccc2-c2nnc(C)o2)cc1OC` [Example 29, (E)-3-(3-methoxy-4-(prop-2-yn-1-yloxy)phenyl)-N-(2-(5-methyl-1,3,4-oxadiazol-2-yl)phenyl)-acrylamide], in data set [1], the cytotoxic concentration (CC50) at 48 h is more than 300 µM. The molecule also returned a half-inhibitory concentration (IC50) in data set [2] of 25.6 µM.

Take `CN1CCOc2cc(/C=C/C(=O)Nc3ccccc3C(=O)O)ccc21` [Example 110, (E)-2-(3-(4-methyl-3,4-dihydro-2H-benzo[b][1,4]oxazin-7-yl)acrylamido)benzoic acid]: the half-maximal cytotoxic concentration (CC50) at 48 h in data set [1] was more than 300 µM. Also, the half-inhibitory concentration (IC50) in data set [2] was determined as 13.9 µM.

In data set [1], `COc1cc(/C=C/C(=O)Nc2ccccc2C(=O)O)ccc1OCc1ccncc1` [Example 58, (E)-2-(3-(3-methoxy-4-(pyridin-4-ylmethoxy)phenyl)acrylamido)benzoic acid] showed a CC50 at 48 h of 266 µM. Moreover, 39.2 µM corresponded to half-maximal inhibition in data set [2] (IC50).

On to `C#CCOc1ccc(/C=C/C(=O)Nc2ccccc2C)cc1OC` [Example 5, (E)-3-(3-methoxy-4-(prop-2-yn-1-yloxy)phenyl)-N-(o-tolyl)acrylamide], for which, in data set [1], the midpoint of cytotoxicity, the CC50 at 48 h, lay at 369 µM. Further, in data set [2], half-maximal inhibition (IC50) was put at 10.6 µM.

In turn, `C#CCOc1ccc(/C=C/C(=O)N2CCNc3ccccc32)cc1OC` [Example 11, (E)-1-(3,4-dihydroquinoxalin-1(2H)-yl)-3-(3-methoxy-4-(prop-2-yn-1-yloxy)phenyl)prop-2-en-1-one] registered a cytotoxic concentration (CC50) at 48 h in data set [1] of 104 µM. In data set [2], this molecule came in with an IC50 of 7.07 µM.

`C#CCOc1ccc(/C=C/C(=O)Nc2ccccc2-c2noc(=O)[nH]2)cc1OC` [Example 19, (E)-3-(3-methoxy-4-(prop-2-yn-1-yloxy)phenyl)-N-(2-(5-oxo-4,5-dihydro-1,2,4-oxadiazol-3-yl)phenyl)acrylamide] displayed a 50% cytotoxic concentration (CC50) at 48 h in data set [1] of 122 µM. Moreover, inhibition in data set [2] was half-maximal at 19.7 µM (IC50).

The molecule `C#CCOc1ccc(/C=C/C(=O)Nc2ccc(C#N)cc2)cc1CC` [Example 124, (E)-N-(4-cyanophenyl)-3-(3-ethyl-4-(prop-2-yn-1-yloxy)phenyl)acrylamide] came in with a CC50 at 48 h in data set [1] of more than 300 µM. The molecule further returned an IC50 in data set [2] of 34.8 µM.

`C#CCOc1ccc(/C=C/C(=O)Nc2ccccc2C(=O)NCCN2CCOCC2)cc1OC` [Example 35, (E)-2-(3-(3-methoxy-4-(prop-2-yn-1-yloxy)phenyl)acrylamido)-N-(2-morpholinoethyl)benzamide] returned a CC50 at 48 h in data set [1] of 301 µM. Moreover, the IC50 in data set [2] was 37.4 µM.

For the molecule `COc1ccc(/C=C/C(=O)Nc2ccc(C#N)cc2)c(OCCN(C)C)c1OC` [Example 129, (E)-N-(4-cyanophenyl)-3-(2-(2-(dimethylamino)ethoxy)-3,4-dimethoxyphenyl)acrylamide trifluoroacetic acid salt], the 50% cytotoxic concentration (CC50) at 48 h in data set [1] was found to be 28.9 µM. In data set [2], this molecule came in with an IC50 of 12.3 µM.

`CN1C(=O)COc2cc(/C=C/C(=O)Nc3ccccc3C(=O)O)ccc21` [Example 109, (E)-2-(3-(4-methyl-3-oxo-3,4-dihydro-2H-benzo[b][1,4]oxazin-7-yl)acrylamido)benzoic Acid] had a CC50 at 48 h in data set [1] of more than 300 µM. In data set [2], the concentration for half-maximal inhibition (IC50) is 24.3 µM.

`COc1ccc(/C=C/C(=O)Nc2ccccc2C(=O)O)c(OCc2cccnc2)c1OC` [Example 96, (E)-2-(3-(3,4-dimethoxy-2-(pyridin-3-ylmethoxy)phenyl)acrylamido)benzoic Acid] displayed a CC50 at 48 h in data set [1] of more than 300 µM. In data set [2], this molecule had an IC50 of 33.6 µM.

Take `CN1Cc2ccc(/C=C/C(=O)Nc3ccccc3C(=O)O)cc2C1=O` [Example 108, (E)-2-(3-(2-methyl-3-oxoisoindolin-5-yl)acrylamido)benzoic acid]: the CC50 at 48 h in data set [1] is more than 300 µM. Further, the half-maximal inhibitory concentration (IC50) in data set [2] was 40.4 µM.

The molecule `COc1cc(/C=C/C(=O)Nc2ccccc2Cl)ccc1OCC1COC1` [Example 152, (E)-N-(2-chlorophenyl)-3-(3-methoxy-4-(oxetan-3-ylmethoxy)phenyl)acrylamide] had a cytotoxic concentration (CC50) at 48 h in data set [1] of more than 300 µM. In addition, the IC50 in data set [2] was 38.2 µM.

`COc1cc(/C=C/C(=O)Nc2ccccc2C(=O)O)ccc1OCC1CCNCC1` [Example 50, (E)-2-(3-(3-methoxy-4-(piperidin-4-ylmethoxy)phenyl)acrylamido)benzoic acid] returned a CC50 at 48 h in data set [1] of 107 µM. The same molecule displayed an IC50 in data set [2] of 47.4 µM.

For the molecule `C#CCOc1ccc(/C=C/C(=O)Nc2ccccc2C(=O)O)c(OCCCN(C)C)c1OC` [Example 86, 2-[[(E)-3-[2-[3-(dimethylamino)propoxy]-3-methoxy-4-prop-2-ynoxy-phenyl]prop-2-enoyl]amino]benzoic acid], in data set [1], the CC50 at 48 h was more than 300 µM. Moreover, 24.9 µM corresponded to half-maximal inhibition in data set [2] (IC50).

As to `COc1ccc(/C=C/C(=O)Nc2ccccc2Cl)cc1OCc1cnn(C)c1` [Example 159, (E)-N-(2-chlorophenyl)-3-(4-methoxy-3-((1-methyl-1H-pyrazol-4-yl)methoxy)phenyl)acrylamide], the cytotoxic concentration (CC50) at 48 h in data set [1] is more than 10 µM. This molecule also gave a half-inhibitory concentration (IC50) in data set [2] of 2.43 µM.

In turn, `C#CCOc1ccc(/C=C/C(=O)Nc2ccccc2C(=O)NC2CCN(C)CC2)cc1OC` [Example 36, (E)-2-(3-(3-methoxy-4-(prop-2-yn-1-yloxy)phenyl)acrylamido)-N-(1-methylpiperidin-4-yl)benzamide] returned a CC50 at 48 h in data set [1] of 15.2 µM. This molecule also returned an IC50 in data set [2] of 15.8 µM.

For the molecule `C#CCOc1ccc(/C=C/C(=O)Nc2ccccc2-c2noc(C)n2)cc1OC` [Example 18, (E)-3-(3-methoxy-4-(prop-2-yn-1-yloxy)phenyl)-N-(2-(5-methyl-1,2,4-oxadiazol-3-yl)phenyl)-acrylamide], in data set [1], the CC50 at 48 h worked out at 151 µM. Besides, in data set [2], the IC50 worked out at 17.2 µM.

For the molecule `C#CCOc1ccc(/C=C/C(=O)Nc2ccccc2C#N)c(OCCN(C)C)c1OC` [Example 77], in data set [1], it took 26.5 µM to reach half-maximal cytotoxicity (CC50 at 48 h). The molecule also came in with an IC50 in data set [2] of 4.69 µM.

Turning to `COc1ccc(/C=C/C(=O)Nc2ccccc2C(=O)O)cc1N1CCOCC1` [Example 101, (E)-2-(3-(4-methoxy-3-morpholinophenyl)acrylamido)benzoic Acid], in data set [1], the midpoint of cytotoxicity, the CC50 at 48 h, lay at 119 µM. In addition, the midpoint of inhibition in data set [2], the IC50, lay at 17 µM.

In data set [1], `COc1cc(/C=C/C(=O)Nc2ccccc2C(=O)O)ccc1N1CCOCC1` [Example 103, (E)-2-(3-(3-methoxy-4-morpholinophenyl)acrylamido)benzoic acid trifluoroacetic acid salt] yielded a CC50 at 48 h of 265 µM. Half-maximal inhibition in data set [2] (IC50) was put at 28 µM.
